We go through 21 compounds from patent publication US11052092B2, “N-{[2-(piperidin-1-yl)phenyl](phenyl)methyl}-2-(3-oxo-3,4-dihydro-2H-1,4-benzoxazin-7-yl)acetamide derivatives and related compounds as ROR-gamma modulators for treating autoimmune diseases” (Genfit, priority 2017, dated 2021).

SMILES strings stand for the structures.

One assay concerns the target T1, human RORγt (Homo sapiens, UniProt P51449).
T1 construct: the full-length cDNA of human RORγt; expressed in transfected cells; host or cells: COS-7 (monkey kidney)
T1 sequence (P51449 1-497 isoform P51449-2): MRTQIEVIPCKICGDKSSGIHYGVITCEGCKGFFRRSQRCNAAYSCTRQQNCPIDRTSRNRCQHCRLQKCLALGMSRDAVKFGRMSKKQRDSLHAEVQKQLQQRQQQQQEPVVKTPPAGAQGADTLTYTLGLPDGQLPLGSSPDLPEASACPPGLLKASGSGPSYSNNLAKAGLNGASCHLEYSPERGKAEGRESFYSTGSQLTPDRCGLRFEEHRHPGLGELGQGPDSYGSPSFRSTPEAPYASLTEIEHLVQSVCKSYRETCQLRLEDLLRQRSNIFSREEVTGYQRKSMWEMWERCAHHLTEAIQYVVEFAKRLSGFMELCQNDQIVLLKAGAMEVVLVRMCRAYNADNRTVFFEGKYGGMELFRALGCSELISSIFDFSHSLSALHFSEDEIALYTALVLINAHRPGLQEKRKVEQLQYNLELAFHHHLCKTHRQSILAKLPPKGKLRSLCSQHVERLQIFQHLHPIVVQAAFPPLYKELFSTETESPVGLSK
Nature of the assay: RORE Luciferase/RORγt transactivation assay. Format: cell-based. The settings on record: COS-7 cells transfected with human IL-17 promoter luciferase reporter and RORγt plasmid; 20 h with compound; read-out: IC50, RORγt activity inhibition. The gist of the method: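 Transactivation read-out: luminescence (Steady-Glo, 30 min at room temperature) from COS-7 cells carrying a RORγt expression plasmid plus a 4.3 kb IL-17 promoter luciferase reporter. Compound exposure was in serum-free DMEM with 0.3% DMSO final. Reported values are IC50 (μM) and Emax (%).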
(A reporter such as luciferase makes a cellular process visible.)

The target in assay [1] is T2, RORγt ligand-binding domain (RORγt-LBD) (Homo sapiens, UniProt P51449).
T2 construct: 20 nM recombinantly expressed RORγ-LBD fused to GST
T2 sequence (P51449 269-508 limits assumed): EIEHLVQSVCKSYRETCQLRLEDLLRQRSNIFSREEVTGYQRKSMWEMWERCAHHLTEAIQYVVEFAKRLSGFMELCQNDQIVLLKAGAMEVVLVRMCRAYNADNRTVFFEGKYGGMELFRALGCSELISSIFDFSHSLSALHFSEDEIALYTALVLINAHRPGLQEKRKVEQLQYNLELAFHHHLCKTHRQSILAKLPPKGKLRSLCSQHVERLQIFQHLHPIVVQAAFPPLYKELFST
Nature of the assay: Time-resolved FRET (TR-FRET) RORγt coactivator assay. The note with it: GST-RORγ-LBD, biotinylated RIP140 peptide, 2 hours at room temperature. An excerpt:
Time-resolved FRET (TR-FRET) RORγt coactivator assay was used to identify RORγ modulator compounds with ligand-dependent coactivator displacement. The assay uses a d2-labeled anti-GST antibody, synthetic N-terminally biotinylated peptide which is derived from nuclear receptor coactivator protein RIP140, and a RORγt ligand-binding domain (RORγt-LBD) that is tagged with glutathione-S-transferase (GST). The influence of compounds on the RORγ-peptide interaction relies on the binding dependent energy transfer from a donor to an acceptor fluorophor attached to the binding partner of interest. […] For reduction of background from compound fluorescence, TR-FRET method makes use of generic fluorophore labels and time resolved detection.
The assays were done in a final volume of 20 μl in a 384 well plate in a CHAPS buffer (2 mM CHAPS; 1 mM DTT, 2 mM EDTA; 0.1% BSA), containing 20 nM recombinantly expressed RORγ-LBD fused to GST, 30 nM N-terminally biotinylated peptide, 1 nM streptavidin-terbium conjugate and 20 nM d2 labeled-anti-GST. Test compounds were diluted using 10 mM stock solution. The range of the final compound concentrations used in this test was from 0.3 nM to 30 μM (logarithmic scale). DMSO content of the samples was kept at 1%. The assay was equilibrated for 2 hours in the dark at room temperature in 384 well plates (Falcon). The signal was detected by an Ultra384 reader (TECAN). […] Compounds that promote coactivator displacement induce a concentration-dependent decrease in time-resolved fluorescent signal. Data were collected and analyzed using GraphPad Prism software (GraphPad Software V5.02, San Diego Calif. USA). IC50 in μM and Emax in % were reported for each compound.
(In general: Time-resolved FRET reads energy transfer from a long-lived donor to a nearby acceptor.)

`O=C1COc2cc(CC(=O)NC(c3ccccc3)c3ccccc3N3CCOCC3)ccc2N1` (stereo not drawn) [Cpd. 7, N-{[2-(morpholin-4-yl)phenyl](phenyl)methyl}-2-(3-oxo-3,4-dihydro-2H-1,4-benzoxazin-7-yl)acetamide]: the concentration for half-maximal inhibition (IC50) at human RORγt is greater than 10 µM; in assay [1] it was 0.1 to 1 µM.

In assay [1], `Cc1ccc(C(NC(=O)Cc2ccc3[nH]c(=O)cc(C)c3c2)c2ccccc2)c(N2CCOCC2)c1` (stereo not drawn) [Cpd. 8, N-{[4-methyl-2-(morpholin-4-yl)phenyl](phenyl)methyl}-2-(4-methyl-2-oxo-1,2-dihydroquinolin-6-yl)acetamide] gave an IC50 of 0.1 to 1 µM.

In the case of `Cc1ccc(C(NC(=O)Cc2ccc3[nH]c(=O)cc(C)c3c2)c2ccccc2)c(C)c1` (stereo not drawn) [Cpd. 9, N-[(2,4-dimethylphenyl)(phenyl)methyl]-2-(4-methyl-2-oxo-1,2-dihydroquinolin-6-yl)acetamide], the results for the IC50 (at human RORγt; in assay [1]) were 1 to 10 µM and 0.01 to 0.1 µM, respectively.

The compound `O=C(Cc1ccc2[nH]c(=O)c(=O)[nH]c2c1)NC(c1ccccc1)c1ccccc1N1CCCCC1` (stereo not drawn) [Cpd. 12, 2-(2,3-dioxo-1,2,3,4-tetrahydroquinoxalin-6-yl)-N-{phenyl[2-(piperidin-1-yl)phenyl]methyl}acetamide] registered an IC50 in assay [1] of 1 to 10 µM.

With `O=C1Cc2cc(CC(=O)NC(c3ccccc3)c3ccccc3N3CCCCC3)ccc2N1` (stereo not drawn) [Cpd. 15, 2-(2-oxo-2,3-dihydro-1H-indol-5-yl)-N-{phenyl[2-(piperidin-1-yl)phenyl]methyl}acetamide], the IC50 lay within 1 to 10 µM on human RORγt and 0.01 to 0.1 µM in assay [1].

For the compound `Cc1ccc(C(NC(=O)Cc2ccc3c(c2)CC(=O)N3)c2ccccc2)c(N2CCOCC2)c1` (stereo not drawn) [Cpd. 18, N-{[4-methyl-2-(morpholin-4-yl)phenyl](phenyl)methyl}-2-(2-oxo-2,3-dihydro-1H-indol-5-yl)acetamide], the values for the IC50 (on human RORγt; in assay [1]) were 1 to 10 µM and 0.1 to 1 µM, respectively.

Turning to `CC1(C)Oc2cc(CC(=O)NC(c3ccccc3)c3ccccc3N3CCCCC3)ccc2NC1=O` (stereo not drawn) [Cpd. 19, 2-(2,2-dimethyl-3-oxo-3,4-dihydro-2H-1,4-benzoxazin-7-yl)-N-{phenyl[2-(piperidin-1-yl)phenyl]methyl}acetamide], in assay [1], the 50% inhibitory concentration (IC50) was in the range of 1 to 10 µM.

With `O=C(Cc1ccc2c(c1)C(=O)C(=O)N2)NC(c1ccccc1)c1ccccc1N1CCCCC1` (stereo not drawn) [Cpd. 20, 2-(2,3-dioxo-2,3-dihydro-1H-indol-5-yl)-N-{phenyl[2-(piperidin-1-yl)phenyl]methyl}acetamide], the IC50 (on human RORγt; in assay [1]) was 1 to 10 µM throughout.

`Cc1ccc(C(NC(=O)Cc2ccc3c(c2)OC(C)(C)C(=O)N3)c2ccccc2)c(N2CCOCC2)c1` (stereo not drawn) [Cpd. 21, 2-(2,2-dimethyl-3-oxo-3,4-dihydro-2H-1,4-benzoxazin-7-yl)-N-{[4-methyl-2-(morpholin-4-yl)phenyl](phenyl)methyl}acetamide]: the IC50 (on human RORγt; in assay [1]) was 0.1 to 1 µM throughout.

In the case of `COc1ccc(C(NC(=O)Cc2ccc3c(c2)C(=O)C(=O)N3)c2ccccc2)c(N2CCCCC2)c1` (stereo not drawn) [Cpd. 22, 2-(2,3-dioxo-2,3-dihydro-1H-indol-5-yl)-N-{[4-methoxy-2-(piperidin-1-yl)phenyl](phenyl)methyl}acetamide], the IC50 lay within 1 to 10 µM on human RORγt and 0.1 to 1 µM in assay [1].

`O=C(Cc1ccc2c(c1)CS(=O)(=O)N2)NC(c1ccccc1)c1ccccc1N1CCCCC1` (stereo not drawn) [Cpd. 26, 2-(2,2-dioxo-1,3-dihydro-2,1-benzothiazol-5-yl)-N-{phenyl[2-(piperidin-1-yl)phenyl]methyl}acetamide]: the IC50 on human RORγt fell in the range of 1 to 10 µM; in assay [1] it was 0.01 to 0.1 µM.

For the compound `COc1ccc(C(NC(=O)Cc2ccc3c(c2)OC(C)(C)C(=O)N3)c2ccc(C)o2)c(N2CCOCC2)c1` (stereo not drawn) [Cpd. 30, 2-(2,2-dimethyl-3-oxo-3,4-dihydro-2H-1,4-benzoxazin-7-yl)-N-{[4-methoxy-2-(morpholin-4-yl)phenyl](5-methylfuran-2-yl)methyl}acetamide], the IC50 on human RORγt was 1 to 10 µM; in assay [1] it was 0.1 to 1 µM.

Take `CCc1ccc(C(NC(=O)Cc2ccc3c(c2)OCC(=O)N3)c2ccc(C)cc2C)o1` (stereo not drawn) [Cpd. 32, N-[(2,4-dimethylphenyl)(5-ethylfuran-2-yl)methyl]-2-(3-oxo-3,4-dihydro-2H-1,4-benzoxazin-7-yl)acetamide]: the results for the IC50 (at human RORγt; in assay [1]) were 0.1 to 1 µM and 1 to 10 µM, respectively.

On to `COc1ccc(C(NC(=O)Cc2ccc3c(c2)OCC(=O)N3)c2ccc(C)o2)c(Br)c1` (stereo not drawn) [Cpd. 34, N-[(2-bromo-4-methoxyphenyl)(5-methylfuran-2-yl)methyl]-2-(3-oxo-3,4-dihydro-2H-1,4-benzoxazin-7-yl)acetamide], for which the IC50 (at human RORγt; in assay [1]) was 0.1 to 1 µM in each case.

Regarding `Cc1ccc(C(NC(=O)Cc2ccc3c(c2)C(C)(C)C(=O)N3C)c2ccc(C)o2)c(N2CCCCC2)c1` (stereo not drawn) [Cpd. 40, N-{[4-methyl-2-(piperidin-1-yl)phenyl](5-methylfuran-2-yl)methyl}-2-(1,3,3-trimethyl-2-oxo-2,3-dihydro-1H-indol-5-yl)acetamide], the IC50 (on human RORγt; in assay [1]) was 0.1 to 1 µM throughout.

On to `Cc1ccc(C(NC(=O)Cc2ccc3c(c2)C(=Cc2c(C)noc2C)C(=O)N3)c2ccc(C)o2)c(N2CCCCC2)c1` (stereo not drawn) [Cpd. 43, 2-{3-[(dimethyl-1,2-oxazol-4-yl)methylidene]-2-oxo-2,3-dihydro-1H-indol-5-yl}-N-{[4-methyl-2-(piperidin-1-yl)phenyl](5-methylfuran-2-yl)methyl}acetamide], for which the IC50 (at human RORγt; in assay [1]) was 0.1 to 1 µM in each case.

Regarding `Cc1ccc(C(NC(=O)Cc2ccc3c(c2)C(=O)C(=O)N3C)c2ccc(C)o2)c(N2CCCCC2)c1` (stereo not drawn) [Cpd. 45, 2-(1-methyl-2,3-dioxo-2,3-dihydro-1H-indol-5-yl)-N-{[4-methyl-2-(piperidin-1-yl)phenyl](5-methylfuran-2-yl)methyl}acetamide], the concentration for half-maximal inhibition (IC50) (on human RORγt; in assay [1]) was 0.1 to 1 µM throughout.

`Cc1ccc(C(NC(=O)Cc2cccc3c2CN(S(C)(=O)=O)C3)c2ccc(C)o2)c(N2CCCCC2)c1` (stereo not drawn) [Cpd. 50, 2-(2-methanesulfonyl-2,3-dihydro-1H-isoindol-4-yl)-N-{[4-methyl-2-(piperidin-1-yl)phenyl](5-methylfuran-2-yl)methyl}acetamide]: the IC50 on human RORγt lay within 0.1 to 1 µM; in assay [1] it was 1 to 10 µM.

On to `Cc1ccc(C(NC(=O)C2(c3ccc4c(c3)CS(=O)(=O)N4)CC2)c2ccc(C)o2)c(C)c1` (stereo not drawn) [Cpd. 63, N-[(2,4-dimethylphenyl)(5-methylfuran-2-yl)methyl]-1-(2,2-dioxo-1,3-dihydro-2,1-benzothiazol-5-yl)cyclopropane-1-carboxamide], for which the half-maximal inhibitory concentration (IC50) at human RORγt is 0.01 to 0.1 µM; in assay [1] it was less than 0.01 µM.

As to `Cc1ccc(C(NC(=O)Cc2ccc3c(ccn3CCC(=O)OC(C)(C)C)c2)c2ccc(C)o2)c(C)c1` (stereo not drawn) [Cpd. 99, tert-butyl 3-[5-({[(2,4-dimethylphenyl)(5-methylfuran-2-yl)methyl]carbamoyl}methyl)-1H-indol-1-yl]propanoate], the IC50 on human RORγt fell in the range of 0.1 to 1 µM; in assay [1] it was 0.01 to 0.1 µM.

Turning to `Cc1ccc(C(NC(=O)Cc2ccc3c(ccn3CCC(=O)OC(C)(C)C)c2)c2ccc(C)o2)c(Br)c1` (stereo not drawn) [Cpd. 100, tert-butyl 3-[5-({[(2-bromo-4-methylphenyl)(5-methylfuran-2-yl)methyl]carbamoyl}methyl)-1H-indol-1-yl]propanoate], the IC50 (at human RORγt; in assay [1]) was 0.1 to 1 µM each time.

As usually defined, the IC50 is the midpoint of a concentration-inhibition curve.
